This note sets out measurements from patent publication US9024018B2, “3-substituted-8-substituted-3H-imidazo[5,1-d][1,2,3,5]tetrazin-4-one compounds and their use” (Pharminox Limited, priority 2009, dated 2015).

What all share (format): cell-based
The test system of one test is SNB19M. Briefly: MTT assay for 7-day toxicity, SNB19M glioma cells (stably transfected with MGMT, MGMT+). The conditions noted are these: 7 day MTT assay, glioma line SNB19M. The protocol: (§1) The cell culture techniques were carried out in a Class II microbiological safety cabinet which was swabbed with 70% IMS in distilled water before each use. Glioma cells were routinely cultured in Costar tissue culture flasks in RPMI 1640 liquid medium (containing 0.3 g/L L-glutamine and 2 g/L sodium bicarbonate) supplemented with 10% heat inactivated FBS (55-59° C.) for 1 hour to denature complement proteins which would otherwise evoke a cellular immune response resulting in cell lysis, 1% non-essential amino acids, 50 μg/mL gentamicin and 400 μg/mL G418 (vector selection reagent). Colorectal and melanoma cells were maintained in RPMI 1640 supplemented with 10% FBS. MRC-5 cells were cultured in EMEM+10% FBS, 1% pen/strep, 1% non-essential amino acids, 1% HEPES (1M) and 1% sodium bicarbonate.
(§2) Cells were grown at 37° C. in a humidified incubator in an atmosphere comprising 95% air/5% CO2. Cells were sub-cultured when growth exceeded approximately 80% confluence, normally twice weekly. The medium was aspirated from the flask and approximately 0.8 mL trypsin-EDTA 1× solution added. The cells were re-incubated at 37° C. until they had visibly detached from the flask. The cells were re-suspended in 5 mL medium and 0.5-1 mL was transferred to a new flask (25 cm^2) with 7 mL culture medium. The cells were further incubated at 37° C. To minimize phenotypic drift, cells were disposed of once they had been subcultured 30 times. New batches of cells were thawed rapidly in 37° C. water bath once taken from liquid nitrogen storage and re-suspended in 10 mL of culture medium in a 25 cm^2 flask. Cells were passaged twice to allow normal growth to resume prior to use in experiments.
(§3) Most test compounds, including temozolomide, were prepared as 100 mM stock solutions in DMSO and stored at −20° C. for not more than 6 months.
(§4) MTT Assay for 7-Day Toxicity Assay
(§5) This assay was first described in Mosmann, T., 1983, “Rapid colorimetric assay for cellular growth and survival: Application to proliferation and cytotoxicity assays”, Journal of Immunological Methods, Vol. 65, Nos. 1-2, pp. 55-63.
(§6) Glioma cell lines, SNB19 and U373, both stably transfected with MGMT (i.e., SNB19M and U373M) or their respective vector controls (i.e., SNB19V and U373V); colorectal carcinoma cell lines, HCT116, HT29, and DLD1; melanoma cell line, SKMEL-28; breast cell line, MCF-7; and normal human fetal lung fibroblast cell line, MRC-5; were used at 60-80% confluence, during the logarithmic phase of growth.
(§7) Following harvesting with trypsin/EDTA, cells in suspension were gently syringed through a 23 gauge needle to obtain a near-single cell suspension. Cells were then seeded into 96-well plates at the desired density in 180 μL culture medium if only one test compound was to be added, or in 160 μL if two test compounds were to be added in combination. Cells were allowed to attach overnight by incubation at 37° C. in 95% air/5% CO2. For the 7 day assay, the cell seeding densities for the different cell lines were as follows: SNB19V, SNB19M: 650 cells/well; U373V, U373M: 650 cells/well; SNB19VR, U373VR: 650 cells/well; HCT116, DLD-1, SKMEL-28, MRC-5, MCF-7: 400 cells/well.
(§8) The two peripheral lanes of each plate were used as blank wells (cell free) and filled with 200 μL of medium in order to minimise medium evaporation from the plate. A separate time zero (T0) plate was set up alongside other plates. Serial dilutions in tissue culture medium of a 100 mM stock of test compound were prepared immediately before each assay to ten times the final concentrations required. 20 μL was added to each well (200 μL total media per well) to achieve final concentrations of 0.5 μM, 1 μM, 5 μM, 10 μM, 50 μM, 100 μM, 500 μM, and 1000 μM. A minimum of four wells received the same test compound concentration. To control wells, including those in the T0 plate, 20 μL of medium was added. […]
For orientation: Formazan colour is commonly taken as a measure of viable cells.

Another test concerns U373V. Description: MTT assay for 7-day toxicity, U373V glioma cells (vector control, MGMT-). The conditions noted are these: 7 day MTT assay, glioma line U373V. On the procedure: as §1, §2, §3, §4, §5, §6, §7, §8
For the next test, the system named is U373M. Description: MTT assay for 7-day toxicity, U373M glioma cells (stably transfected with MGMT, MGMT+). The settings on record: 7 day MTT assay, glioma line U373M. On the procedure:
as §1, §2, §3, §4, §5, §6, §7, §8

The subject of a further test is SNB19V. Briefly: MTT assay for 7-day toxicity, SNB19V glioma cells (vector control, MGMT-). The settings on record: Glioma cell, 168 h, 7 day MTT assay, glioma line SNB19V. The protocol: as §1, §2, §3, §4, §5, §6, §7, §8

By GI50 is commonly meant the concentration that inhibits growth by half. On to `Cn1nnc2c(-c3nc(-c4ccsc4)cs3)ncn2c1=O` [WW-012, 3-Methyl-8-(4-(thiophen-3-yl)thiazol-2-yl)imidazo[5,1-d][1,2,3,5]tetrazin-4(3H)-one], for which the GI50 with SNB19M (Glioma cell, 168 h) is less than 70 µM; in the test with U373V (Glioma cell, 168 h), less than 75 µM; in the test on U373M (Glioma cell, 168 h), less than 60 µM; in the test with SNB19V it was less than 45 µM.
As to `C#CCn1nnc2c(-c3nc(-c4cccc(Cl)c4)cs3)ncn2c1=O` [WW-023, 8-(4-(3-Chlorophenyl)thiazol-2-yl)-3-(prop-2-ynyl)imidazo[5,1-d][1,2,3,5]tetrazin-4(3H)-one], the GI50 is less than 70 µM with SNB19M (Glioma cell, 168 h); less than 75 µM in the test on U373V (Glioma cell, 168 h); less than 60 µM in the test with U373M (Glioma cell, 168 h); less than 45 µM with SNB19V.
Take `C#CCn1nnc2c(-c3nc(-c4ccsc4)cs3)ncn2c1=O` [WW-024, 3-(Prop-2-ynyl)-8-(4-(thiophen-3-yl)thiazol-2-yl)imidazo[5,1-d][1,2,3,5]tetrazin-4(3H)-one]: the 50% growth inhibitory concentration (GI50) was less than 70 µM in the test with SNB19M (Glioma cell, 168 h); less than 75 µM in the test with U373V (Glioma cell, 168 h); less than 60 µM with U373M (Glioma cell, 168 h); less than 45 µM in the test on SNB19V.
On to `C#CCn1nnc2c(-c3nc(-c4ccc(S(C)(=O)=O)cc4)cs3)ncn2c1=O` [WW-025], for which the GI50 was less than 70 µM in the test with SNB19M (Glioma cell, 168 h); less than 75 µM in the test on U373V (Glioma cell, 168 h); less than 60 µM in the test on U373M (Glioma cell, 168 h); less than 45 µM in the test with SNB19V.
As to `C#CCn1nnc2c(-c3nc(-c4ccc5c(c4)OCO5)cs3)ncn2c1=O` [WW-026], the GI50 in the test on SNB19M (Glioma cell, 168 h) is less than 70 µM; with U373V (Glioma cell, 168 h), less than 75 µM; with U373M (Glioma cell, 168 h), less than 60 µM; in the test on SNB19V, less than 45 µM.
For the compound `C#CCn1nnc2c(-c3nc(-c4nccs4)cs3)ncn2c1=O` [WW-028, 8-(2,4′-Bithiazol-2′-yl)-3-(prop-2-ynyl)imidazo[5,1-d][1,2,3,5]tetrazin-4(3H)-one], the GI50 was 56.5 µM with SNB19M; less than 70 µM with SNB19M (Glioma cell, 168 h); 50 µM with U373V; less than 75 µM with U373V (Glioma cell, 168 h); 35.1 µM in the test with U373M; less than 60 µM in the test on U373M (Glioma cell, 168 h). The concentration for 50% growth inhibition (GI50) in the test with SNB19V is 54 µM.
With `C#CCn1nnc2c(-c3nc(-c4cccs4)cs3)ncn2c1=O` [WW-029, 3-(Prop-2-ynyl)-8-(4-(thiophen-2-yl)thiazol-2-yl)imidazo[5,1-d][1,2,3,5]tetrazin-4(3H)-one], the GI50 is less than 70 µM in the test on SNB19M (Glioma cell, 168 h); less than 75 µM in the test with U373V (Glioma cell, 168 h); less than 60 µM with U373M (Glioma cell, 168 h); less than 45 µM in the test with SNB19V.
The like results for `C[S+]([O-])Cn1nnc2c(-c3nc(-c4ccccc4)cs3)ncn2c1=O` (centres unmarked) [WW-031, 3-(methylsulfinylmethyl)-8-(4-phenylthiazol-2-yl)imidazo[5,1-d][1,2,3,5]tetrazin-4(3H)-one] were, in that order, less than 70 µM, less than 75 µM, less than 60 µM and less than 45 µM.
For `C[S+]([O-])Cn1nnc2c(-c3nc(-c4ccsc4)cs3)ncn2c1=O` (centres unmarked) [WW-033, 3-(methylsulfinylmethyl)-8-(4-(thiophen-3-yl)thiazol-2-yl)imidazo[5,1-d][1,2,3,5]tetrazin-4(3H)-one], in that order: less than 70 µM, less than 75 µM, less than 60 µM and less than 45 µM.
Consider `C[S+]([O-])Cn1nnc2c(-c3nc(-c4cccs4)cs3)ncn2c1=O` (centres unmarked) [WW-036, 3-(methylsulfinylmethyl)-8-(4-(thiophen-2-yl)thiazol-2-yl)imidazo[5,1-d][1,2,3,5]tetrazin-4(3H)-one], for which the GI50 in the test on SNB19M (Glioma cell, 168 h) is less than 70 µM; in the test with U373V (Glioma cell, 168 h), less than 75 µM; with U373M (Glioma cell, 168 h), less than 60 µM; with SNB19V, less than 45 µM.
On to `Cn1nnc2c(-c3nc(-c4ccccc4)co3)ncn2c1=O` [WW-037, 3-Methyl-8-(4-phenyloxazol-2-yl)imidazo[5,1-d][1,2,3,5]tetrazin-4(3H)-one], for which the GI50 is less than 70 µM in the test with SNB19M (Glioma cell, 168 h); less than 75 µM with U373V (Glioma cell, 168 h); less than 60 µM with U373M (Glioma cell, 168 h); less than 45 µM in the test on SNB19V.
With `Cn1nnc2c(-c3ncc(-c4ccccc4)o3)ncn2c1=O` [WW-038, 3-Methyl-8-(5-phenyloxazol-2-yl)imidazo[5,1-d][1,2,3,5]tetrazin-4(3H)-one], the GI50 in the test with SNB19M (Glioma cell, 168 h) was less than 70 µM; with U373V (Glioma cell, 168 h) it was less than 75 µM; in the test on U373M (Glioma cell, 168 h), less than 60 µM; in the test on SNB19V, less than 45 µM.
For `C#CCn1nnc2c(-c3nnc(-c4ccccc4)o3)ncn2c1=O` [WW-042, 8-(5-Phenyl-1,3,4-oxadiazol-2-yl)-3-(prop-2-ynyl)imidazo[5,1-d][1,2,3,5]tetrazin-4(3H)-one], in that order: less than 70 µM, less than 75 µM, less than 60 µM and less than 45 µM.
As to `Cn1nnc2c(-c3ncc[nH]3)ncn2c1=O` [WW-047, 8-(1H-Imidazol-2-yl)-3-methylimidazo[5,1-d][1,2,3,5]tetrazin-4(3H)-one], the GI50 was less than 70 µM with SNB19M (Glioma cell, 168 h); less than 75 µM with U373V (Glioma cell, 168 h); less than 60 µM in the test on U373M (Glioma cell, 168 h); less than 45 µM with SNB19V.
The like results for `Cn1nnc2c(-c3nc(-c4cccs4)c[nH]3)ncn2c1=O` [WW-048, 3-Methyl-8-(4-(thiophen-2-yl)-1H-imidazol-2-yl)imidazo[5,1-d][1,2,3,5]tetrazin-4(3H)-one] were, in that order, less than 70 µM, less than 75 µM, less than 60 µM and less than 45 µM.
Regarding `Cn1nnc2c(-c3nc(-c4ccccc4)c[nH]3)ncn2c1=O` [WW-049, 3-Methyl-8-(4-phenyl-1H-imidazol-2-yl)imidazo[5,1-d][1,2,3,5]tetrazin-4(3H)-one], the GI50 in the test with SNB19M (Glioma cell, 168 h) was less than 70 µM; with U373V (Glioma cell, 168 h) it was less than 75 µM; with U373M (Glioma cell, 168 h), less than 60 µM; in the test on SNB19V, less than 45 µM.
Take `C#CCn1nnc2c(-c3nc(-c4ccccc4)c[nH]3)ncn2c1=O` [WW-050, 8-(4-Phenyl-1H-imidazol-2-yl)-3-(prop-2-ynyl)imidazo[5,1-d][1,2,3,5]tetrazin-4(3H)-one]: the GI50 in the test with SNB19M (Glioma cell, 168 h) was less than 70 µM; with U373V (Glioma cell, 168 h), less than 75 µM; with U373M (Glioma cell, 168 h), less than 60 µM; in the test on SNB19V it was less than 45 µM.
Consider `Cn1cc(-c2ccccc2)nc1-c1ncn2c(=O)n(C)nnc12` [WW-051, 3-Methyl-8-(1-methyl-4-phenyl-1H-imidazol-2-yl)imidazo[5,1-d][1,2,3,5]tetrazin-4(3H)-one], for which the GI50 with SNB19M (Glioma cell, 168 h) is less than 70 µM; with U373V (Glioma cell, 168 h) it was less than 75 µM; in the test with U373M (Glioma cell, 168 h) it was less than 60 µM; in the test on SNB19V, less than 45 µM.
With `C#CCn1nnc2c(-c3nc(-c4ccccc4)cn3C)ncn2c1=O` [WW-052, 8-(1-Methyl-4-phenyl-1H-imidazol-2-yl)-3-(prop-2-ynyl)imidazo[5,1-d][1,2,3,5]tetrazin-4(3H)-one], the GI50 in the test on SNB19M (Glioma cell, 168 h) was less than 70 µM; with U373V (Glioma cell, 168 h), less than 75 µM; with U373M (Glioma cell, 168 h) it was less than 60 µM; with SNB19V, less than 45 µM.
Regarding `C#CCn1nnc2c(-c3nc4ccccc4o3)ncn2c1=O` [WW-055, 8-(Benzo[d]oxazol-2-yl)-3-(prop-2-ynyl)imidazo[5,1-d][1,2,3,5]tetrazin-4(3H)-one], the concentration for 50% growth inhibition (GI50) in the test with SNB19M (Glioma cell, 168 h) was less than 70 µM; in the test with U373V (Glioma cell, 168 h), less than 75 µM; with U373M (Glioma cell, 168 h), less than 60 µM; in the test on SNB19V, less than 45 µM.
